Consider 18 molecules from ChEMBL document CHEMBL3785045, “Design, syntheses, and anti-tuberculosis activities of conjugates of piperazino-1,3-benzothiazin-4-ones (pBTZs) with 2,7-dimethylimidazo [1,2-a]pyridine-3-carboxylic acids and 7-phenylacetyl cephalosporins” (2016).

Assay [1] concerns Mycobacterium tuberculosis. The assay can be described thus: Antimycobacterial activity against Mycobacterium tuberculosis H37Rv cultured in 7H12 medium after 4 days by microplate Alamar blue assay. It is filed as functional. The following applies: 96 h.
Assay [2] concerns Mycobacterium tuberculosis. The assay is described as follows: Antimycobacterial activity against Mycobacterium tuberculosis H37Rv cultured in GAS medium after 4 days by microplate Alamar blue assay. The format is functional. The settings on record: 96 h. Background: Resazurin is reduced to fluorescent resorufin, in cell work by metabolically active cells.
The test system of assay [3] is Micrococcus luteus. The assay is described as follows: Antibacterial activity against Micrococcus luteus ATCC 10240. It is filed as functional.
Assay [4] has as its system Bacillus subtilis. The assay is described as follows: Antibacterial activity against Bacillus subtilis ATCC 6633. The format is functional.
Assay [5] concerns Staphylococcus aureus. The assay is described as follows: Antibacterial activity against Staphylococcus aureus SG511. It is filed as functional.
Assay [6] deals with Micrococcus luteus. The assay is described as follows: Antibacterial activity against Micrococcus luteus ATCC 10240 assessed as zone of growth inhibition by agar diffusion assay. It is filed as functional. For orientation: In agar diffusion tests the substance spreads into inoculated agar from a disc or well.
Assay [7] concerns Staphylococcus aureus. The assay can be described thus: Antibacterial activity against Staphylococcus aureus SG511 assessed as zone of growth inhibition by agar diffusion assay. The format is functional.
Assay [8] has as its system Mycolicibacterium vaccae. The assay can be described thus: Antibacterial activity against Mycobacterium vaccae IMET 10670 assessed as zone of growth inhibition by agar diffusion assay. The format is functional.
Assay [9] relates to Bacillus subtilis. The assay can be described thus: Antibacterial activity against Bacillus subtilis ATCC 6633 assessed as zone of growth inhibition by agar diffusion assay. The format is functional.
The test system of assay [10] is Mycolicibacterium vaccae. The assay can be described thus: Antibacterial activity against Mycobacterium vaccae IMET 10670. The format is functional.
Assay [11] has as its system Micrococcus luteus. The assay can be described thus: Antibacterial activity against Micrococcus luteus ATCC 10240 assessed as zone of growth inhibition at 1.66 ug/ml by agar diffusion assay. It is filed as functional. The following applies: read-out: IZ.
Assay [12] has as its system Bacillus subtilis. The assay is described as follows: microbe, parasite or virus in culture. The following applies: ATCC 6633, read-out: IZ.
Description: Antibacterial activity against Bacillus subtilis ATCC 6633 assessed as zone of growth inhibition at 1.66 ug/ml by agar diffusion assay
Assay [13] deals with Mycolicibacterium vaccae. The assay can be described thus: Antibacterial activity against Mycobacterium vaccae IMET 10670 assessed as zone of growth inhibition at 1.66 ug/ml by agar diffusion assay. The format is functional. The following applies: read-out: IZ.
Assay [14] relates to Staphylococcus aureus. The assay can be described thus: microbe, parasite or virus in culture. The settings on record: SG511, read-out: IZ.
Description: Antibacterial activity against Staphylococcus aureus SG511 assessed as zone of growth inhibition at 1.66 ug/ml by agar diffusion assay

Converted amounts (≈) assume the structure as drawn.

As a reminder, the MIC is the smallest concentration in the dilution series that meets the test's criterion for growth inhibition. A higher MIC goes with weaker potency.

Turning to `CC(C)(C)OC(=O)N1CCN(c2nc(=O)c3cc(C(F)(F)F)cc([N+](=O)[O-])c3s2)CC1`, the minimum inhibitory concentration (MIC) in [1] is 0.28 µM (≈ 0.129 µg/mL); in assay [2], under 0.2 µM.

For `O=C(Cc1ccccc1)N[C@@H]1C(=O)N2C(C(=O)O)=C(CN3CCN(c4cc5c(cc4F)c(=O)c(C(=O)O)cn5C4CC4)CC3)CS[C@H]12`, the results for the MIC in the assay on Micrococcus luteus [3], against Bacillus subtilis [4] and against Staphylococcus aureus [5] were 3.13 µM (≈ 2.07 µg/mL), under 0.1 µM and 0.2 µM (≈ 0.132 µg/mL), respectively.

Consider `Cc1ccn2c(C(=O)NCCCC(=O)OCc3ccccc3)c(C)nc2c1`, for which the MIC was 5.85 µM (≈ 2.14 µg/mL) in assay [1] and over 10 µM in assay [2].

In the case of `CC(C)(C)OC(=O)C1=C(COC(=O)OC(Cl)C(Cl)(Cl)Cl)CS[C@@H]2[C@H](NC(=O)Cc3ccccc3)C(=O)N12` (stereo partly specified), the results for the minimum inhibitory concentration (MIC) in assay [1] and in assay [2] were over 50 µM and 22.2 µM (≈ 13.7 µg/mL), respectively.

In the case of `Cc1ccn2c(C(=O)N3CCN(c4nc(=O)c5cc(C(F)(F)F)cc([N+](=O)[O-])c5s4)CC3)c(C)nc2c1`, the MIC worked out at 2.1 µM (≈ 1.12 µg/mL) in assay [1] and 1.43 µM (≈ 0.761 µg/mL) in [2].

As to `Cc1ccn2c(C(=O)NCCC(=O)OCc3ccccc3)c(C)nc2c1`, the MIC in assay [1] and in assay [2] was over 10 µM throughout.

As to `O=C(Cc1ccccc1)N[C@@H]1C(=O)N2C(C(=O)O)=C(COC(=O)N3CCN(c4nc(=O)c5cc(C(F)(F)F)cc([N+](=O)[O-])c5s4)CC3)CS[C@H]12`, the minimal inhibitory concentration (MIC) in assay [1] worked out at 4.63 µM (≈ 3.4 µg/mL); in the assay on Bacillus subtilis [4], 0.8 µM (≈ 0.588 µg/mL); against Mycolicibacterium vaccae [10], 0.2 µM (≈ 0.147 µg/mL); in the assay with Staphylococcus aureus [5], 12.5 µM (≈ 9.18 µg/mL); in assay [2], 12 µM (≈ 8.79 µg/mL). Also, the “inhibition zone (IZ)” value was 24 mm in the assay on Micrococcus luteus [6], 27 mm in the assay on Staphylococcus aureus [7], 48 mm in the assay with Mycolicibacterium vaccae [8] and 41 mm in the assay with Bacillus subtilis [9].

For the molecule `O=C(Cc1ccccc1)N[C@@H]1C(=O)N2C(C(=O)O)=C(CN3CCN(c4nc(=O)c5cc(C(F)(F)F)cc([N+](=O)[O-])c5s4)CC3)CS[C@H]12`, the minimum inhibitory concentration (MIC) was 1.56 µM (≈ 1.08 µg/mL) in the assay with Micrococcus luteus [3]; 86.8 µM (≈ 60 µg/mL) in [1]; under 0.003 µM with Bacillus subtilis [4]; 12.5 µM (≈ 8.63 µg/mL) against Mycolicibacterium vaccae [10]; 0.4 µM (≈ 0.276 µg/mL) with Staphylococcus aureus [5]; 48.9 µM (≈ 33.8 µg/mL) in [2]. The “inhibition zone (IZ)” value is on record as 48 mm in the assay with Micrococcus luteus [6], 32 mm in the assay with Staphylococcus aureus [7], 33 mm in the assay with Mycolicibacterium vaccae [8] and 41 mm in the assay with Bacillus subtilis [9].

In the case of `COc1ccc(COC(=O)C2=C(CN3CCN(c4nc(=O)c5cc(C(F)(F)F)cc([N+](=O)[O-])c5s4)CC3)CS[C@@H]3[C@H](NC(=O)Cc4ccccc4)C(=O)N23)cc1`, the minimum inhibitory concentration (MIC) is over 100 µM in assay [1], 0.1 µM (≈ 0.0811 µg/mL) in the assay with Bacillus subtilis [4], 1.56 µM (≈ 1.26 µg/mL) against Staphylococcus aureus [5] and over 100 µM in assay [2]. Moreover, the “inhibition zone (IZ)” value is given as 24 mm in the assay with Micrococcus luteus [6], 37 mm in the assay with Staphylococcus aureus [7], 24 mm in the assay on Mycolicibacterium vaccae [8] and 36 mm with Bacillus subtilis [9].

Consider `Cc1ccn2c(C(=O)NCCCC(=O)N3CCN(c4nc(=O)c5cc(C(F)(F)F)cc([N+](=O)[O-])c5s4)CC3)c(C)nc2c1`, for which the minimum inhibitory concentration (MIC) in assay [1] and in [2] was over 10 µM each time.

Consider `Cc1ccn2c(C(=O)NCCC(=O)N3CCN(c4nc(=O)c5cc(C(F)(F)F)cc([N+](=O)[O-])c5s4)CC3)c(C)nc2c1`, for which the MIC in [1] and in [2] was over 10 µM in each case.

Regarding `CC(C)(C)OC(=O)C1=C(COC(=O)N2CCN(c3nc(=O)c4cc(C(F)(F)F)cc([N+](=O)[O-])c4s3)CC2)CS[C@@H]2[C@H](NC(=O)Cc3ccccc3)C(=O)N12`, the figures for the minimum inhibitory concentration (MIC) in assay [1] and in assay [2] were 1.49 µM (≈ 1.18 µg/mL) and 63.5 µM (≈ 50.2 µg/mL), respectively.

Take `Cc1ccn2c(C(=O)NCc3ccc(C(=O)OCc4ccccc4)cc3)c(C)nc2c1`: the MIC turned out to be 0.21 µM (≈ 0.0868 µg/mL) in assay [1] and 4.1 µM (≈ 1.7 µg/mL) in [2].

As for `Cc1ccn2c(C(=O)NCc3ccc(C(=O)N4CCN(c5nc(=O)c6cc(C(F)(F)F)cc([N+](=O)[O-])c6s5)CC4)cc3)c(C)nc2c1`, the MIC in assay [1] and in assay [2] was over 10 µM in each case.

Consider `CC(C)(C)OC(=O)C1=C(CN2CCN(c3nc(=O)c4cc(C(F)(F)F)cc([N+](=O)[O-])c4s3)CC2)CS[C@@H]2[C@H](NC(=O)Cc3ccccc3)C(=O)N12`, for which the MIC in [1] came to 2.03 µM (≈ 1.52 µg/mL); against Bacillus subtilis [4], 1.56 µM (≈ 1.16 µg/mL); against Mycolicibacterium vaccae [10] it was 0.8 µM (≈ 0.597 µg/mL); against Staphylococcus aureus [5] it was 12.5 µM (≈ 9.33 µg/mL); in [2], 1.51 µM (≈ 1.13 µg/mL). In addition, the “inhibition zone (IZ)” value was determined as 13 mm with Micrococcus luteus [6], 23 mm in the assay on Staphylococcus aureus [7], 29 mm in the assay with Mycolicibacterium vaccae [8] and 27 mm with Bacillus subtilis [9].

Consider `C[C@H]1COC2(CCN(c3nc(=O)c4cc(C(F)(F)F)cc([N+](=O)[O-])c4s3)CC2)O1` [BTZ-043], for which the MIC with Micrococcus luteus [3] was over 200 µM; in assay [1], under 0.004 µM; against Mycolicibacterium vaccae [10], 0.03 µM (≈ 0.0129 µg/mL); in the assay on Staphylococcus aureus [5], over 200 µM; in assay [2], under 0.004 µM.

As to `O=C(O)c1cn(C2CC2)c2cc(N3CCNCC3)c(F)cc2c1=O` [CIPROFLOXACIN], the zone of inhibition at 1.66 µg/mL came out at 0 mm with Micrococcus luteus [11], 20 mm with Bacillus subtilis [12], 17 mm in the assay with Mycolicibacterium vaccae [13] and 20 mm in the assay with Staphylococcus aureus [14]. Further, the MIC against Bacillus subtilis [4] was 0.15 µM (≈ 0.0497 µg/mL).

On to `CO[C@H]1/C=C/O[C@@]2(C)Oc3c(C)c(O)c4c(O)c(c(/C=N/N5CCN(C)CC5)c(O)c4c3C2=O)NC(=O)/C(C)=C\C=C\[C@H](C)[C@H](O)[C@@H](C)[C@@H](O)[C@@H](C)[C@H](OC(C)=O)[C@@H]1C` [RIFAMPIN], for which the minimal inhibitory concentration (MIC) was found to be 0.05 µM (≈ 0.0411 µg/mL) in assay [1] and 0.04 µM (≈ 0.0329 µg/mL) in assay [2].
